One assay concerns the target Syk (Homo sapiens, UniProt P43405). Nature of the assay: ADP-Glo kinase inhibition assay, Syk. It counts as biochemical. As to the method:
Syk kinase inhibition assays were run on 96-well plates using the ADP-Glo assay kit according to manufacturer's specifications. All kinase reactions were run using Kinase Assay Buffer III supplemented with DTT and MnCl2 as required by the kinase of interest to generate kinase reaction buffer. Stock solutions of kinase inhibitor in DMSO were diluted into 2× kinase reaction buffer and the final concentration of DMSO in each kinase reaction was held below 1%. […] Kinase inhibitors were incubated with kinase and substrate prior to addition of ATP for 20 min at room temperature (RT). After addition of ATP to the wells, the plate was incubated at 37° C. for 30-60 minutes depending on the kinase used. After incubation the plate was cooled to RT for 5 minutes prior to addition of 25 μL ADP-Glo reagent and incubation on a shaker for 40 minutes. After 40 minutes, 50 μL Kinase Detection reagent were added and the plate was protected from light while incubated on a shaker. After 30 min, the luminescence was recorded using a Neo2 plate reader and 1 sec integration of the signal. The background signal was subtracted from all readings and the signal was normalized to the maximum signal obtained in the absence of inhibitor. Data were plotted and inhibition curves fit using Graphpad software.
On the technique in general: ADP-Glo turns the ADP formed in a reaction into a luminescent signal.

The target in the next assay is EGFR (Homo sapiens, UniProt P00533). Nature of the assay: ADP-Glo kinase assay, EGFR. In kind it is biochemical. The protocol:
(§1) Syk kinase inhibition assays were run on 96-well plates using the ADP-Glo assay kit according to manufacturer's specifications. All kinase reactions were run using Kinase Assay Buffer III supplemented with DTT and MnCl2 as required by the kinase of interest to generate kinase reaction buffer. Stock solutions of kinase inhibitor in DMSO were diluted into 2× kinase reaction buffer and the final concentration of DMSO in each kinase reaction was held below 1%. The total volume of each kinase reaction was 25 μL apportioned as: 5 μL 2× kinase reaction buffer or diluted kinase inhibitor, 5 μL 1 mg/mL (stock) kinase substrate, 10 μL kinase in kinase reaction buffer, and 5 μL 250 μM ATP diluted into kinase reaction buffer. Kinase inhibitors were incubated with kinase and substrate prior to addition of ATP for 20 min at room temperature (RT). After addition of ATP to the wells, the plate was incubated at 37° C. for 30-60 minutes depending on the kinase used. After incubation the plate was cooled to RT for 5 minutes prior to addition of 25 μL ADP-Glo reagent and incubation on a shaker for 40 minutes. […] After 30 min, the luminescence was recorded using a Neo2 plate reader and 1 sec integration of the signal. The background signal was subtracted from all readings and the signal was normalized to the maximum signal obtained in the absence of inhibitor. […]

A further assay concerns the target SRC (Homo sapiens, UniProt P12931). Description: ADP-Glo kinase assay, SRC. In kind it is biochemical. As to conditions: FIG. 6B. As to the method:
as §1

Another assay addresses T1, ZAP70 (Homo sapiens, UniProt P43403).
T1 sequence (P43403 1-619): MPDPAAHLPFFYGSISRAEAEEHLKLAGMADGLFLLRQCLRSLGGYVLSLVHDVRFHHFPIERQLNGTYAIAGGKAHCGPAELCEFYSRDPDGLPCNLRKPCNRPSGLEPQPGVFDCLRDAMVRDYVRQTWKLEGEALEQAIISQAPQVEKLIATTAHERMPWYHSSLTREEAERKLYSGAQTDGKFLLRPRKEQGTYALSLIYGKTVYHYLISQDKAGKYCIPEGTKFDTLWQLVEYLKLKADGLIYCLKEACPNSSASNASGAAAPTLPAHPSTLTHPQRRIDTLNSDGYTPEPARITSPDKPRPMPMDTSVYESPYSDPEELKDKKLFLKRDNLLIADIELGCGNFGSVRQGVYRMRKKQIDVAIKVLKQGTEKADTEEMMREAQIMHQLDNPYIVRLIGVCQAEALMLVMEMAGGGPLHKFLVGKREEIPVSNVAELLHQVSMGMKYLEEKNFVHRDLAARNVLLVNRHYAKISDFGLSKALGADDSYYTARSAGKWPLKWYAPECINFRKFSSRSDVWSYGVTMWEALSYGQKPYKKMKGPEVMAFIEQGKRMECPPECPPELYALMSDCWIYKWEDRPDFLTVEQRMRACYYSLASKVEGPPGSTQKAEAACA
Description: ADP-Glo kinase assay, ZAP70. As to conditions: FIG. 6B. In kind it is biochemical. The protocol: as §1

The next assay deals with Lyn A (Homo sapiens, UniProt P07948). Description: ADP-Glo kinase assay, Lyn A. It counts as biochemical. As to conditions: FIG. 6B. The protocol:
as §1

For assay [1], the system named is Syk phosphorylation of Band 3. Description: Band 3 tyrosine phosphorylation induced in healthy donor RBCs by OV (Western blot). In kind it is cell-based. Conditions: Homo sapiens; healthy donor RBCs treated with OV; read-out: in vitro IC50 against Syk phosphorylation of Band 3. The protocol:
(§2) RBC ghosts were then prepared by mixing 150 μL of packed RBCs with 1500 μL of ice-cold ghost buffer (5 mM Na2HPO4, 1 mM EDTA, pH 8.0, containing 1 mM phenylmethylsulfonyl fluoride (PMSF) and 1% phosphatase cocktail inhibitors 2 and 3) and allowed to sit on ice for 30 min. Samples were centrifuged at 13000 rpm for 15 min at 4° C. and supernatants were removed. Ghost pellets were washed an additional 3×, after which 10 μL was removed for determination of protein concentration using Pierce™ Rapid Gold BCA Protein Assay (Thermo Fisher Scientific, A53226). Residual ghosts were solubilized in 4× Laemmli buffer (Bio-Rad) at a concentration of 1 […] and warmed to 30° C. for 30 min prior to storage at −20° C. until use.
(§3) Band 3 tyrosine phosphorylation was quantitated by loading 30 μL of each thawed sample onto a 10% SDS-PAGE gel and separating at 90, 120 and 150 V for 30, 45 and 20 minutes, respectively. Proteins were then transferred to a nitrocellulose membrane at 100 V for 2 hours, after which membranes were immunostained with anti-phosphotyrosine (1:1000, Cell Signaling, Inc.) or anti-actin (1:20000) antibodies dissolved in TBST (25 mM Tris, 140 mM NaCl, 3 mM KCl, 0.05% v/v Tween-20) containing 5% w/v milk. […] Band 3 tyrosine phosphorylation intensity/densitometry was quantitated using image J software.

The test system of another assay is healthy donor human RBCs. Nature of the assay: Hemolysis (Hb release) induced by phosphatase inhibitors in healthy donor human RBCs. In kind it is cell-based. An excerpt: (§4) Cayman's hemoglobin colorimetric assay was used to quantitate the level of cell-free plasma hemoglobin in both patient plasma samples and in the above kinase-treated RBC supernatant samples according to the manufacturer's instruction.

The test system of assay [2] is SCD patient RBCs. Nature of the assay: Free plasma hemoglobin in SCD patient samples. It counts as cell-based, human. As to conditions: 1 μM S701, SCD patient samples. The protocol:
(§5) For evaluation of the effect of tyrosine kinase inhibitors on release of RBC-derived MPs from sickle cells suspended at 30% Hct in PBS-G, 500 μL washed RBCs were treated for 1 hour with the desired concentration of tyrosine kinase inhibitor or vehicle control, and then shaken at 1400 RPM for 4 h. Newly released microparticles were then separated from residual RBCs by centrifuging at 800 rcf for 10 minutes, collecting the supernatant, and analyzing the supernatant for RBC-derived MPs as described above.
as §4

Assay [3] has as its system SCD patient RBCs. Description: Erythrocyte-derived microparticle release in SCD patient samples. As to conditions: SCD patient samples incubated with 1 μM S701 (untreated SCD 18, healthy seven). It counts as cell-based, human. As to the method: Plasma from sickle cell samples (see above) was centrifuged 2× at 2500 rcf for 15 minutes to remove platelets and 100 μL of supernatant containing MPs was incubated for 20 minutes on ice with 0.5 μL of BV421 mouse-anti-human 235a antibody (anti-glycophorin A; BD Biosciences #562938). Samples were diluted with 1000 μL of stain buffer (BD Biosciences #554656), transferred to BD Trucount™ tubes (BD Biosciences #340334) and analyzed on an Attune NxT Flow Cytometer by utilizing violet fluorescent trigger channel. The absolute number of RBC-derived microparticles was then calculated using the following formula,
as §5

Assay [4] has as its system SCD patient RBCs. Description: RBC velocity through microfluidic capillary. In kind it is cell-based, human. Conditions: concentrations as low as 50 nM, various levels of oxygenation. As to the method:
Microfluidic capillary devices were fabricated with polydimethylsiloxane (PDMS) using standard soft photolithography techniques. Capillaries were constructed with a straight channel (w=75 μm, h=6.52 μm) containing a constriction (wc=5 μm and h=6.52 μm). To control the oxygen level inside the channel, the microfluidic device was submerged in a customized glass chamber filled with sodium sulfite solution (0M, 0.01M, 0.1M or 1M) (Sigma-Aldrich). The oxygen level was calibrated using 25 μM of tris(2,2′-bipyridyl)dichlororuthenium(II) hexahydrate (an O2 indicator, Sigma-Aldrich) then converted into a PO2 value using the Stern-Volmer equation, I0/I=1+PO2×Kq, where I^0 is the maximum fluorescence intensity and Kq is the quenching constant. The calibration results are obtained.
Sickle cell blood samples were obtained from five patients (n=5, age 4-9 years old) and RBCs were isolated by centrifugation. […] For quantitation of RBC velocity in a microfluidic capillary, the RBC suspension was injected into the capillary at a constant pressure of 1.6 psi, and the velocity of the RBCs in the constriction was recorded using a high-speed video camera (Phantom Miro M120, 1900 frames per second) mounted on an inverted microscope (Leica DMI 6000B). Data were analyzed using Phantom Camera Control software.

For the next assay, the system named is phosphorylated Band 3. Description: Band 3 tyrosine phosphorylation in SCD RBC lysates (Western blot). In kind it is cell-based, human. As to conditions: 1 μM S701, SCD RBC lysates, anti-pY Western blot. As to the method: as §2, §3
On the technique in general: Immunoblotting shows a protein as a band on a membrane.

SMILES strings stand for the structures. Like-named read-outs stand apart in the source and are kept apart here.

Sequence of EGFR (P00533 25-1210): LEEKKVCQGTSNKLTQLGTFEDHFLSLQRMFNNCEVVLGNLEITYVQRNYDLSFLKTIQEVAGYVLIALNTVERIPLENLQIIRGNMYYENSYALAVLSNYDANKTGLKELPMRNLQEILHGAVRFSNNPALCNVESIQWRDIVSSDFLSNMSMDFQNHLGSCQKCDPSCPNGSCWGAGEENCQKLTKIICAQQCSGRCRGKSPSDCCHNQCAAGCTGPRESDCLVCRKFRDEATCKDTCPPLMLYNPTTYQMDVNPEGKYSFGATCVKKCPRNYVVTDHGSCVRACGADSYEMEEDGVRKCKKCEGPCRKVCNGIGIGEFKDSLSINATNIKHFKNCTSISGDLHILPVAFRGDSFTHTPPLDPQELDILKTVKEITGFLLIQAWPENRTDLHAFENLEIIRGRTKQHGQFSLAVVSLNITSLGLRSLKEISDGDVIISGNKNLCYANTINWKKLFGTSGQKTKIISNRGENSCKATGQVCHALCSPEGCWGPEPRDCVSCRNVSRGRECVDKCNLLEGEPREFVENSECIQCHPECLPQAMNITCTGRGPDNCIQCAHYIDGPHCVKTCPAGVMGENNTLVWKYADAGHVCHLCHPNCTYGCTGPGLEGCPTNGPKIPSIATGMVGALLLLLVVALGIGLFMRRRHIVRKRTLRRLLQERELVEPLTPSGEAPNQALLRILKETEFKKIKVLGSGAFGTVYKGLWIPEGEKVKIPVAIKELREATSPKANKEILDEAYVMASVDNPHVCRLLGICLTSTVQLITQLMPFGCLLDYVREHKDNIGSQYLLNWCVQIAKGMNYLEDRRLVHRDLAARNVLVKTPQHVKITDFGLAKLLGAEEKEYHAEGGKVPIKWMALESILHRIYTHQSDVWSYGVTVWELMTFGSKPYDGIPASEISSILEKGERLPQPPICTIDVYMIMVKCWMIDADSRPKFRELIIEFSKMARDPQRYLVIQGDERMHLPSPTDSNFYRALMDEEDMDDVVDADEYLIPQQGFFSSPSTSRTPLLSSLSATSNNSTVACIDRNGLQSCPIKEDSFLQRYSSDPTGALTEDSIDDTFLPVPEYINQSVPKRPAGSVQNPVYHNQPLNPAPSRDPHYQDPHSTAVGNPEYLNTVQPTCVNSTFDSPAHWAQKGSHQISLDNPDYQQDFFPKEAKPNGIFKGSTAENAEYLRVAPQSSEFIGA
Sequence of SRC (P12931 whole entry): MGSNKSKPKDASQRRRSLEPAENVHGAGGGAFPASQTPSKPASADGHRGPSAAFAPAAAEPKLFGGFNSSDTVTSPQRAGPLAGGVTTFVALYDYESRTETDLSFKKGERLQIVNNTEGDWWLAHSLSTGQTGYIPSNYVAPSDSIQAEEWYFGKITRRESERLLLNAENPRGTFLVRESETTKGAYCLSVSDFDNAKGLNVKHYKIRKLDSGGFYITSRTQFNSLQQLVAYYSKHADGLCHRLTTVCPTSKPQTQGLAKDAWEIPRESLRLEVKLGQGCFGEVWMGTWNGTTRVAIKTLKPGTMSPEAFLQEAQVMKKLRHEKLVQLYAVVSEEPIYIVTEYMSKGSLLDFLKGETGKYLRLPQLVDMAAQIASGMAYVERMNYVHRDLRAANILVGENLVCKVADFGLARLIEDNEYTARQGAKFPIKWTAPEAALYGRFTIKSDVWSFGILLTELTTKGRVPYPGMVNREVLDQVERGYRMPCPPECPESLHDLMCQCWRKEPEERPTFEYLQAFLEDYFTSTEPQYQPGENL
Sequence of Lyn A (P07948 whole entry): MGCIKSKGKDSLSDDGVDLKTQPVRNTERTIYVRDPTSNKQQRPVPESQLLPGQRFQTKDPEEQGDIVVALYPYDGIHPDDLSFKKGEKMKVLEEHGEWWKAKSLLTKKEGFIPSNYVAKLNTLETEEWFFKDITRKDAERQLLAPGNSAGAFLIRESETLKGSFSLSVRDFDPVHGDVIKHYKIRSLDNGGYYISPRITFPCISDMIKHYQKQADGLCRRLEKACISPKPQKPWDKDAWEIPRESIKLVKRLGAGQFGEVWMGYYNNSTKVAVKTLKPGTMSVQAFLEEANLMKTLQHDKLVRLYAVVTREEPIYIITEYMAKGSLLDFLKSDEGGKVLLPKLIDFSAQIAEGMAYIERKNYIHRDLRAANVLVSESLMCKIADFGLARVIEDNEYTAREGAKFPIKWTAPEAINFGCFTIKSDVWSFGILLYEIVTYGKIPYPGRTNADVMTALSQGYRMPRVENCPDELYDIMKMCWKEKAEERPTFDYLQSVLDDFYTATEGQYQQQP

As for `COc1ccc(Nc2nc(Nc3cccc4[nH]ccc34)ncc2F)c(-c2ccc(O)c(O)c2)c1` [S602, 2′-((2-((1H-indol-4-yl)amino)-5-fluoropyrimidin-4-yl)amino)-5′-methoxy-[1,1′-biphenyl]-3,4-diol], the “Syk inhibition compared to S701” value on Syk (FIG. 6B) was “even better IC50 value for inhibiting Syk as compared to S701”. Moreover, the “inhibitory effect on EGFR” value against EGFR is listed as “very significantly higher concentrations to have an impact”. On SRC, the “inhibitory effect on SRC” value is “very significantly higher concentrations to have an impact”. Further, on ZAP70, the “inhibitory effect on ZAP 70” value is given as “very significantly higher concentrations to have an impact”. For the same compound, the “inhibitory effect on Lyn A” value against Lyn A is recorded as “very significantly higher concentrations to have an impact”.
As a reminder, the IC50 is the concentration that inhibits the measured activity by half. Turning to `COc1cc(Nc2ncc(F)c(NC(=O)c3cc(O)c(O)c(O)c3)n2)cc(OC)c1OC` [S701, N-(5-fluoro-2-((3,4,5-trimethoxyphenyl)amino)pyrimidin-4-yl)-3,4,5-trihydroxybenzamide], the IC50 is 581 nM on Syk (cell-free) and approximately 5000 nM in assay [1]. For the same compound, the “inhibitory effect on EGFR” value against EGFR is “has to be in really high concentrations to have any inhibitory effect”. In addition, the percent inhibition of hemolysis at 5 µM amounted to 50% in the assay with healthy donor human RBCs (5 μM S701, Diamide, read-out: inhibition of hemolysis, Diamide); 44% in the assay on healthy donor human RBCs (5 μM S701, Phenylhydrazine, read-out: inhibition of hemolysis, Phenylhydrazine); 25% with healthy donor human RBCs (5 μM S701, phosphatase inhibitor OV, read-out: inhibition of hemolysis, OV). Besides, the “decrease of concentration of free plasma hemoglobin” value in the assay with SCD patient RBCs [2] was 47%. Besides, in the assay on SCD patient RBCs [3], the “number of MPs released per μL of plasma” value is “five”. In addition, the “RBC velocity through a 5 μm tube” value in the assay on SCD patient RBCs [4] is “increased RBC velocity”. Also, the “phosphorylated Band 3” value in the assay on phosphorylated Band 3 was “notable decrease in phosphorylated Band 3”.

The values are drawn from US12473264B2, “Inhibitors of erythrocyte band 3 tyrosine phosphorylation and uses thereof” (Purdue Research Foundation, priority 2019, dated 2025).
